{
  "source": "paper PMC12723449",
  "about": "“From Pharmacophore to Warhead: NAD^+‐Targeting Triazoles as Mechanism‐Based Sirtuin Inhibitors” (Angewandte Chemie (International Ed. in English), 2025)",
  "key": {"SIRT2": {"molecular_target": "T1, SIRT2 (Homo sapiens, UniProt Q8IXJ6)", "T1 construct": "For assay experiments, strep-tagged human SIRT1134−747 and SIRT256-356 were expressed and purified as previously; Strep-tag; made in house; host or cells: E. coli BL21 Star (DE3)", "T1 sequence (Q8IXJ6 56-356 limits assumed)": "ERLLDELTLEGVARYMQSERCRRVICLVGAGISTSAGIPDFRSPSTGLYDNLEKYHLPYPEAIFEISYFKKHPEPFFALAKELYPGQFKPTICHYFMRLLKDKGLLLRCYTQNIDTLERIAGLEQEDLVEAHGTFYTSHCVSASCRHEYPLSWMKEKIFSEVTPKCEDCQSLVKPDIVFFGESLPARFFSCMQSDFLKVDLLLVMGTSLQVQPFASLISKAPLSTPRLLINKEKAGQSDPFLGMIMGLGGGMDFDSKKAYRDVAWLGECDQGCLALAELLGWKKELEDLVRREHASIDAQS", "test": "Kinetic analysis via continuous enzyme demyristoylation inhibition assay", "assay_type": "biochemical", "settings": "myristoylated substrate, two-step inhibition model; read-out: K I app", "experimental": "solution was diluted 100-fold to a total volume of 40 µL with substrate (final concentration of 40 nM), NAD+ (final concentration of 500 µM) and DMSO (final concentration of 5 % (v/v)) and transferred to a black 384-well microplate (Optiplate 384 F, PerkinElmer). For NAD+ preincubation, 0.1 µL of inhibitor solution (40× IC50, […] after jump dilution), 0.1 µL of SIRT2 (400 nM, final concentration of 1 nM after jump dilution) and 0.2 µL of NAD+ ([…] concentration of 500 µM after jump dilution) were preincubated for 30 min. […] The change in fluorescence was monitored with a microplate reader (λEx = 485 nm, λEm = 530-10 nm, BMG POLARstar Optima, BMG Labtech, Germany) every 30 s for 20 min. […] Reaction rates were obtained from the slope of the fluorescence signal over time and converted to product concentration using calibration curves, assuming equal fluorescence intensities for substrate and product, as […]\nFt = time-dependent signal resulting from product formation (in µM, calculated from AU values), F0 = Y-intercept = background signal at reaction initiation (in µM, calculated from AU values), vi = initial product formation velocity (in µM/min), vs = final/steady-state product formation velocity (in µM/min), t = incubation time after enzyme addition (in min), kobs = observed rate of time-dependent inhibition from initial vi to final vs (in min-1). […]"}, "α‐tubulin": {"tested_on": "α‐tubulin", "design": "method as in PMID 35441145", "settings": "cited from earlier work"}},
  "data": [
    {"smiles": "CCCCCCCCCCCCc1cn(CCCC[C@H](NC(=O)[C@H](CCCCN)NC(=O)[C@@H]2CCCN2C(=O)[C@H](CC(C)C)NC(=O)[C@H](C)NC(=O)[C@H](CCC(=O)O)NC(C)=O)C(=O)N[C@H](C(=O)NCC(=O)NCC(N)=O)[C@@H](C)O)nn1", "note": "[Compound 6]", "values": [
      {"measurement": "Ki", "setting": "SIRT2", "result": 24.7, "unit": "µM"}
    ]},
    {"smiles": "COCCn1cc(COc2cccc(Cc3cnc(NC(=O)CSc4nc(C)cc(C)n4)s3)c2)nn1", "note": "[Compound 1, reference compound]", "values": [
      {"measurement": "α-tubulin hyperacetylation", "setting": "α‐tubulin", "result": "pronounced α‐tubulin hyperacetylation"}
    ]}
  ]
}
